Consider four molecules from patent publication US10584103B2 (Sanford Burnham Prebys Medical Discovery Institute, priority 2014, dated 2020).

The target of one experiment is NTR1 (Homo sapiens (Human), UniProt P30989). The experiment in a line: NTR1 dose response, high-content imaging assay in NTR1-U2OS cells (beta-arrestin-GFP). The class given is cell-based. The text has this:
The cell lines utilized in the high-content imaging assays, which include the NTR1-, NTR2-, and GPR35-U2OS osteosarcomas, were obtained from the laboratory of Dr. Lawrence Barak at the Duke University Medical Center. The media used in the culture of the cell lines, as well as the assays themselves, consisted of Minimum Essential Medium (15-010-CM) and L-glutamine (25-005-CL) from Cellgro/Mediatech (Manassas, Va.), fetal bovine serum (SH30396.03) from Hyclone (Logan, Utah), penicillin-streptomycin solution (PS-20) from Omega Scientific in Tarzana, Calif., G418 (ant-gn-1) from Invivogen (San Diego, Calif.), and zeocin (R250-01) from Invitrogen (Carlsbad, Calif.). Cell lines were cultured in T225 tissue culture flasks (431082) supplied by Corning (Corning, N.Y.). Additional reagents employed include Dulbecco's Phosphate-Buffered Saline (DPBS) (21-031CV) from Cellgro/Mediatech, Trypsin-EDTA 0.05% (25300) from Invitrogen, paraformaldehyde (30528954) from Acros Organics (Geel, Belgium), Hoechst 33342 (H3570) from Invitrogen. The high-content assays were run in 1536-well plates (29326) supplied by Aurora Biotechnology (Poway, Calif.) and utilized aluminum plate seals (T592100) from E&K Scientific (Santa Clara, Calif.). […]

Experiment [1] has as its system neurotensin-deficient mice. Conditions: cited from earlier work.

NTR1, sequence (P30989 whole entry, species assumed): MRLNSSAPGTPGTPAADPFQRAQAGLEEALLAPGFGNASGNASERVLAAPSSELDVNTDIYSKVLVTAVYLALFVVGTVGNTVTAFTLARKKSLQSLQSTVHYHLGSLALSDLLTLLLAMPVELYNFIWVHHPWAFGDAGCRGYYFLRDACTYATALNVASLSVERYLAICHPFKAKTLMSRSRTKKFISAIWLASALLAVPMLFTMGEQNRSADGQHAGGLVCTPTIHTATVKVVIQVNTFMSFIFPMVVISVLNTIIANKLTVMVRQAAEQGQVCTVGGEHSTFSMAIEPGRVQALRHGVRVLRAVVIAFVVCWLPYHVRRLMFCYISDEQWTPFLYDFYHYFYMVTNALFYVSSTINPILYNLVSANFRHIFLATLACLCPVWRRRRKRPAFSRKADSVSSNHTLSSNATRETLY

On to `C#Cc1nc(N2CCC(c3ccccc3OC)CC2)c2cc(N(C)CCO)ccc2n1` [Example 192, 2-({2-Ethynyl-4-[4-(2-methoxy-phenyl)-piperidin-1-yl]-quinazolin-6-yl}-methyl-amino)-ethanol], for which the EC50 entry on NTR1 is given as “et”.
With `OCCOCCN1CCN(C2=Nc3ccccc3Sc3ccccc32)CC1` [quetiapine], the “augmentation of PPI” value in experiment [1] was “ineffective”.
On to `O=C(CCCN1CCC(O)(c2ccc(Cl)cc2)CC1)c1ccc(F)cc1` [haloperidol], for which the “augmentation of PPI” value in experiment [1] was “ineffective”.
`CN1CCN(C2=Nc3cc(Cl)ccc3Nc3ccccc32)CC1` [clozapine]: the “augmentation of PPI” value in experiment [1] was “augmented PPI normally”.
